From patent US4803198A, “1-Phenyl-2-aminocarbonylindole compounds, preparation thereof and pharmaceutical compositions containing them” (Kali-Chemie Pharma GmbH, priority 1981, dated 1989) come the findings set out here.

For data set [1], the system named is ventricular fibrillation caused by inhalation of chloroform. Description: Inhibition of ventricular fibrillation caused by inhalation of chloroform (method of Lawson). In kind it is in vivo. Particulars: mice, 10 min before chloroform. On the procedure:
For example, in mice, the compounds have an inhibiting effect on ventricular fibrillation caused by inhalation of chloroform. The effect of the compounds on ventricular fibrillation in mice caused by inhalation of chloroform leading to rapid cessation of breathing is determined by the method of Lawson (J. Pharmacol. Exp. Ther. 160, 22-23).
In this experimental procedure, the minimum toxic dose can also be determined at the same time. The test substance, dissolved in 0.9% strength sodium chloride solution, is administered intraperitoneally to female mice of 17-24 g body weight. The animals are kept individually in glass beakers, where they are observed for possible toxic symptoms. Ten minutes after administration of the test substance, the animals are transferred to covered 300 ml glass beakers containing a cottonwool swab soaked with about 20 ml of chloroform. As soon as breathing begins to stop, the heart is exposed and the ventricular rhythm and rate are observed visually. The percentage of animals protected from ventricular fibrillation by the dose administered is given.
in the test described above, the compounds of formula I display antiarrhythmic actions in a dose range from 0.1 to 100 mg/kg.
The Example numbers given for the compounds of formula I relate to the preparation Exaples below.

Another data set has as its system mice. Particulars: mouse, in vivo.
The subject of data set [2] is disorders in cardiac rhythm induced by aconitine infusion. The data set is described as follows: Inhibition of disorders in cardiac rhythm induced by aconitine infusion (method of Raschak). Type of data set: in vivo, rats. Particulars: Rattus norvegicus, iv. The protocol: The compounds also show an inhibiting action on disorders in cardiac rhythm induced by aconitine infusion [extrasystoles (ES), ventricular tachycardia (VT) and ventricular fibrillation (VF)] in rats in the experimental method of Raschak (Arzneimittelforsch. 25 (1975) 639-641). Thus, for example, the minimum effective doses of 2-[3-(N,N-diethylamino)-2-hydroxypropylaminocarbonyl]-3-methoxy-1-phenylindole on intravenous administration 5 minutes before the start of aconitine infusion are as follows: […]

The nature of a further data set: Acute toxicity. The settings on record: in vivo; for LD50: mouse. The source says: This gives a therapeutic range (=quotient LD50 .sbsb.mouse /EDmin) of 8-17.
In data set [3] the test system is isolated left auricle of female guinea pigs. The data set is described as follows: Functional refractory period prolonging and contraction force reducing action, double-stimulation method of Govier. The settings on record: isolated atrium from guinea pigs; for EC (125%) / IC25: Cavia porcellus; for EC (125%): 0.3 h, 18 minutes after administration, read-out: FRP: concentration at which the functional refractory period is increased to 125%; for IC25: read-out: Force: concentration at which the contraction force is reduced to 75% of the starting value; for Force/FRP quotient of concentrations: indication of therapeutic range. The source says:
The favourable relationship between the functional refractory period prolonging action (FRP) and the contraction force reducing action (force) of the compounds can also be shown on the isolated left auricle of female guinea pigs of 300-400 g body weight by the double-stimulation method of Govier [J. Pharmakol.

Molecules are shown by their SMILES. Where two headings read alike, the source gives them in different places.

For the compound `CCN(CC)CC(O)CNC(=O)c1c(OC)c2ccccc2n1-c1ccccc1` (stereo not shown) [Example 1, 2-[3-(N,N-Diethylamino)-2-hydroxypropylaminocarbonyl]-3-methoxy-1-phenylindole], the “% of protected animals” value in data set [1] (dose 25 mg/kg ip) is 100%. For the same compound, the figures for the Minimum toxic dose in the data set on mice (ip) and with mice (po) were 300 mg/kg and 100 mg/kg, respectively. Besides, the minimal effective dose in data set [2] (read-out: Minimum effective inhibiting dose, extrasystoles) was 2.15 µmol/kg; in data set [2] (read-out: Minimum effective inhibiting dose, heart rate) it was over 12 µmol/kg; in data set [2] (read-out: Minimum effective inhibiting dose, ventricular fibrillation) it was 4.64 µmol/kg; in data set [2] (read-out: Minimum effective inhibiting dose, ventricular tachycardia), 2.15 µmol/kg. For the same compound, the LD50 came to 164 µmol/kg in the data set “Acute toxicity” (ip, administered intraperitoneally) and 37.3 µmol/kg in “Acute toxicity” (iv, administered intravenously). The selectivity ratio in the data set “Acute toxicity” (LD50 mouse over minimum effective dose in aconitine test, read-out: therapeutic range (=quotient LD50 mouse/EDmin)) fell in the range of 8 to 17. Further, the EC (125%) in data set [3] stood at 3.6 µM. In addition, the IC25 in data set [3] was 6.3 µM. Moreover, the “Force/FRP quotient of concentrations” value in data set [3] is given as 1.8.
With `CN(C)CCNC(=O)c1c(O)c2ccccc2n1-c1ccc(Cl)cc1` [Example 2, 2-[2-(N,N-Dimethylamino)-ethylaminocarbonyl]-3-hydroxy-1-(4'-chlorophenyl)-indole], in data set [1] (dose 100 mg/kg ip), the “% of protected animals” value is recorded as 100%. In addition, the Minimum toxic dose is given as at least 100 mg/kg in the data set on mice (ip) and at least 300 mg/kg in the data set with mice (po).
On to `COc1c(C(=O)NCCN(C)C)n(-c2ccc(Cl)cc2)c2ccccc12` [Example 15], for which the “% of protected animals” value in data set [1] (dose 100 mg/kg ip) was 100%. The Minimum toxic dose is reported as at least 100 mg/kg with mice (ip) and at least 300 mg/kg with mice (po).
As for `CCN(CC)CCCNC(=O)c1c(OC)c2ccccc2n1-c1ccccc1` [Example 20], the “% of protected animals” value in data set [1] (dose 10 mg/kg ip) worked out at 100%. Further, the Minimum toxic dose in the data set on mice (ip) amounted to 300 mg/kg. This compound registered a Minimum toxic dose in the data set with mice (po) of 50 mg/kg. In data set [3], the EC (125%) was determined as 0.66 µM, the IC25 was found to be 3.57 µM and the “Force/FRP quotient of concentrations” value was determined as 5.4.
For `CCN(CC)CCCCNC(=O)c1c(OC)c2ccccc2n1-c1ccccc1` [Example 22], in data set [1] (dose 10 mg/kg ip), the “% of protected animals” value worked out at 66.7%. In addition, the Minimum toxic dose with mice (ip) was found to be 300 mg/kg; in the data set with mice (po) it was 50 mg/kg.
With `Cc1cccc(-n2c(C(=O)NCCN(C)C)c(O)c3ccccc32)c1C` [Example 25], the “% of protected animals” value in data set [1] (dose 100 mg/kg ip) stood at 66.7%. The Minimum toxic dose is at least 100 mg/kg in the data set with mice (ip) and at least 300 mg/kg in the data set on mice (po).
Turning to `COc1c(C(=O)NCCN(C)C)n(-c2ccccc2)c2ccc(Br)cc12` [Example 30], in data set [1] (dose 50 mg/kg ip), the “% of protected animals” value is 33.3%. Moreover, the Minimum toxic dose in the data set with mice (ip) is at least 300 mg/kg; in the data set with mice (po), 200 mg/kg.
